From US20220089568A1 (Janssen Biotech, Inc., priority 2019, published 2022)

How the values were obtained:
human DHODH = biological target: T1, human DHODH (Homo sapiens, UniProt Q02127); experiment: DHODH Enzymatic Assay; type: biochemical; details: purified human DHODH; DCIP absorbance, end-point mode
T1 construct: purchased Proteros PR-0044
Method in brief: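 Purified human DHODH activity read as absorbance of DCIP, the terminal electron acceptor, in […] pH 7.5, 150 mM NaCl, 0.5 mM EDTA, 0.1% Triton X-100. Reaction started with a substrate mix of 20 mM DHO, 5 mM CoQ6 and 1 mM DCIP in assay buffer.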

MOLM-13 cells = experiment: MOLM-13 Cellular Assay; type: cell-based; details: Homo sapiens, 72 hours exposure, cell viability by CellTiter-Glo
Experimental: The day prior to assay set-up, cells were pelleted, resuspended in fresh media, counted, and cells were plated at 0.4×10^6 cell/mL in a T150 flask. […] Cells were exposed to different concentrations of test compounds at 37° C., 5% CO2 for 72 hours immediately after seeding.

T1 sequence (Q02127 whole entry): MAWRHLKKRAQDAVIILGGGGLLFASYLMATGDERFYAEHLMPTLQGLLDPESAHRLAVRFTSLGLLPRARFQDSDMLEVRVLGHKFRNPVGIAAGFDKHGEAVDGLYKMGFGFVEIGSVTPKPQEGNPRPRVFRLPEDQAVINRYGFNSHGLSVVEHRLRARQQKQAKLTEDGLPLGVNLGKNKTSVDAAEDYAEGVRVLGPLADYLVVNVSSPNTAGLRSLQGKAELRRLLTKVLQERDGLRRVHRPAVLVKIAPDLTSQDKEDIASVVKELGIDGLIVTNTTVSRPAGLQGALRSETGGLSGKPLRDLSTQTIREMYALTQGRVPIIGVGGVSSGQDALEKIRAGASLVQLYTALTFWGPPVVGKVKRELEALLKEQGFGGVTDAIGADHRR

SMILES	EC50 (human DHODH) [nM]	EC50 (MOLM-13 cells) [nM]
CCn1c(CO)nn(-c2nc(O[C@@H](C)C(F)(F)F)c(C(=O)Nc3c(C)ccnc3C)cc2F)c1=O [Example 18, (S)-N-(2,4-Dimethylpyridin-3-yl)-6-(4-ethyl-3-(hydroxymethyl)-5-oxo-4,5-dihydro-1H-1,2,4-triazol-1-yl)-5-fluoro-2-((1,1,1-trifluoropropan-2-yl)oxy)nicotinamide]	3.7	12.8
CCn1c(CO)nn(-c2nc(O[C@@H](C)C(F)(F)F)c(C(=O)Nc3ncnc(C)c3C)cc2F)c1=O [Example 43, (S)-N-(5,6-Dimethylpyrimidin-4-yl)-6-(4-ethyl-3-(hydroxymethyl)-5-oxo-4,5-dihydro-1H-1,2,4-triazol-1-yl)-5-fluoro-2-((1,1,1-trifluoropropan-2-yl)oxy)nicotinamide]	815	> 100
CCn1c(CO)nn(-c2nc(O[C@@H](C)C(F)(F)F)c(C(=O)Nc3ccnc(OC)c3Cl)cc2F)c1=O [Example 24, (S)-N-(3-Chloro-2-methoxypyridin-4-yl)-6-(4-ethyl-3-(hydroxymethyl)-5-oxo-4,5-dihydro-1H-1,2,4-triazol-1-yl)-5-fluoro-2-((1,1,1-trifluoropropan-2-yl)oxy)nicotinamide]	10.8	10.1

Stronger by EC50 (human DHODH), values ahead:

EC50 (human DHODH) [nM]	EC50 (MOLM-13 cells) [nM]	SMILES
3.31	0.371	CCn1c(CO)nn(-c2nc(O[C@@H](C)C(F)(F)F)c(C(=O)Nc3c(C(F)F)n[nH]c3C)cc2F)c1=O [Example 124, N-[3-(Difluoromethyl)-5-methyl-1H-pyrazol-4-yl]-6-[4-ethyl-3-(hydroxymethyl)-5-oxo-1,2,4-triazol-1-yl]-5-fluoro-2-[(1S)-2,2,2-trifluoro-1-methyl-ethoxy]pyridine-3-carboxamide]
0.895	1.4	CCn1c(CO)nn(-c2nc(O[C@@H](C)C(F)(F)F)c(C(=O)Nc3c(C)cc(C)nc3Cl)cc2F)c1=O [Example 72, (S)-N-(2-Chloro-4,6-dimethylpyridin-3-yl)-6-(4-ethyl-3-(hydroxymethyl)-5-oxo-4,5-dihydro-1H-1,2,4-triazol-1-yl)-5-fluoro-2-((1,1,1-trifluoropropan-2-yl)oxy)nicotinamide]
